For four compounds, IC50 results are on record in US8686010B2, “Aryl- or heteroaryl-sulfonyl compounds as acid secretion inhibitors” (Takeda Pharmaceutical Company Limited, priority 2006, dated 2014).

Counter-ions that a name gives are not always drawn.

For the test, the target named is T1, H+,K+-ATPase (Sus scrofa, UniProt P19156).
T1 construct: The obtained microsomal fraction was used as a proton, potassium—adenosine triphosphatase standard product; from tissue; host or cells: swine stomach, gastric mucous membrane microsomal fraction
T1 sequence (P19156 2-1034 limits assumed): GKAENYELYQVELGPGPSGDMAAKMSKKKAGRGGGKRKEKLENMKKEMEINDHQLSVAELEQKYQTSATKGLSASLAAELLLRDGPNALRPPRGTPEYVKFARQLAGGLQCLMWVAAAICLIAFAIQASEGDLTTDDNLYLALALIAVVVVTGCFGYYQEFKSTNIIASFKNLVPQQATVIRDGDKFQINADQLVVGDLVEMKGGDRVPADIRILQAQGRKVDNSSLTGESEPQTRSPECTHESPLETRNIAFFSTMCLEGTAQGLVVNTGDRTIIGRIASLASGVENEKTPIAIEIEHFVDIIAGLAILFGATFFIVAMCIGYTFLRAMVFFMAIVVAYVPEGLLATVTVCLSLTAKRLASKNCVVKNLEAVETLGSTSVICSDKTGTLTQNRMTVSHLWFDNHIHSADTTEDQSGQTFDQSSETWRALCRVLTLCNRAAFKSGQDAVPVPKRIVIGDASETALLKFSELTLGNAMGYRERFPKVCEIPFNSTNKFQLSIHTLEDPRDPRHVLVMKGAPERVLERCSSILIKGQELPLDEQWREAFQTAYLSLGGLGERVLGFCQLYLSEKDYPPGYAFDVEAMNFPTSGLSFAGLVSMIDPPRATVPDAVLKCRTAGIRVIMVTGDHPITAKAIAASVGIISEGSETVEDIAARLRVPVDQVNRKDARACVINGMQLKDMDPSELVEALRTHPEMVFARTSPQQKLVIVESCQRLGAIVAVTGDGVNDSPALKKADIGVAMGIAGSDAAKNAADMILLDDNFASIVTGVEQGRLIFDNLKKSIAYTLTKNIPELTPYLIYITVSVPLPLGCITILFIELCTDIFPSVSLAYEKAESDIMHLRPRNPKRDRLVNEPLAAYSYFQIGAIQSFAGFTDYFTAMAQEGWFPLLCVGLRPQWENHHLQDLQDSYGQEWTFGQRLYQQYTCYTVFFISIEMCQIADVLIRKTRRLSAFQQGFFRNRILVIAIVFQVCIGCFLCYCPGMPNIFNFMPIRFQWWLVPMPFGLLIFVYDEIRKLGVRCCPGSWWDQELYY
T1 sequence (P18434 whole entry partner): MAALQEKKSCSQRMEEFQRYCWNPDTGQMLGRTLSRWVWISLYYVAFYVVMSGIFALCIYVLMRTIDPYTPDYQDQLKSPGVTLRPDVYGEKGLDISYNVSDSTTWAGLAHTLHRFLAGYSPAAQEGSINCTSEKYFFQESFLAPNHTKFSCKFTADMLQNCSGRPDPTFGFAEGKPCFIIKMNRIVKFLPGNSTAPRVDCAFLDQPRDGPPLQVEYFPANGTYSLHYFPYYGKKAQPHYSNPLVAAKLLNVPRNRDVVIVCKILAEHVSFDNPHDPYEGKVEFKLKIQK
As to the kind of experiment: Proton potassium-adenosine triphosphatase (H+,K+-ATPase) inhibitory activity test. The format is biochemical. To be noted: gastric mucous membrane microsomal fraction from swine stomach; pH 6.5, 37° C., malachite green colorimetry at 610 nm; read-out: IC50 (50% inhibitory concentration of proton, potassium-adenosine triphosphatase). How it is done: Proton Potassium—Adenosine Triphosphatase (H^+,K^+-ATPase) Inhibitory Activity Test
According to the method [Biochim. Biophys. Acta, 728, 31 (1983)] of Wallmark et al., a gastric mucous membrane microsomal fraction was prepared from the stomach of swine. First, the stomach was removed, washed with tap water, immersed in 3 mol/L brine, and the surface of the mucous membrane was wiped with a paper towel. The gastric mucous membrane was detached, chopped, and homogenized in a 0.25 mol/L saccharose solution (pH 6.8) containing 1 mmol/L EDTA and 10 mmol/L tris-hydrochloric acid using polytron (Kinematica). The obtained homogenate was centrifuged at 20,000×g for 30 min and the supernatant was centrifuged at 100,000×g for 90 min. The precipitate was suspended in 0.25 mol/L saccharose solution, superimposed on a 0.25 mol/L saccharose solution containing 7.5% Ficoll, and centrifuged at 100,000×g for 5 hr. The fraction containing the interface between the both layers was recovered, and centrifugally washed with 0.25 mol/L saccharose solution.
The obtained microsomal fraction was used as a proton, potassium—adenosine triphosphatase standard product.
To 40 μL of a 50 mmol/L HEPES-tris buffer (5 mmol/L magnesium chloride, 10 mmol/L potassium chloride, 10 μmol/L valinomycin, pH=6.5) containing 2.5 μg/mL (based on the protein concentration) of the enzyme standard product was added a test compound (5 μL) dissolved in a 10% aqueous dimethyl sulfoxide solution, and the mixture was incubated at 37° C. for 30 min. The enzyme reaction was started by adding 5 μL of a 2 mmol/L adenosine triphosphate tris salt solution (50 mmol/L HEPES-tris buffer (5 mmol/L magnesium chloride, pH 6.5)). The enzyme reaction was performed at 37° C. for 20 min, and 15 μL of a malachite green solution (0.12% malachite green solution in sulfuric acid (2.5 mol/L), 7.5% ammonium molybdate and 11% Tween 20 were mixed at a ratio of 100:25:2) was added to quench the reaction. After allowing to stand at room temperature for 15 min, the resulting reaction product of inorganic phosphorus with malachite green was colorimetrically determined at a wavelength of 610 nm. In addition, the amount of the inorganic phosphoric acid in the reaction solution free of potassium chloride was measured in the same manner, which was subtracted from the inorganic phosphoric acid amount in the presence of potassium chloride to determine the proton, potassium—adenosine triphosphatase activity. The inhibitory rate (%) was determined from the activity value of the control activity value and the activity values of various concentrations of the test compound, and the 50% inhibitory concentration (IC50) of the proton, potassium-adenosine triphosphatase was determined.
Take `CNCc1cn(-c2ccccc2)c(S(=O)(=O)c2ccccc2)c1C` [Example 1, N-methyl-1-[4-methyl-1-phenyl-5-(phenylsulfonyl)-1H-pyrrol-3-yl]methanamine hydrochloride]: the IC50 was 180 nM. Next, `Cc1ccc(S(=O)(=O)n2cc(CN(C)C)nc2-c2ccccc2)cc1` [Example 5, N,N-dimethyl-1-{1-[(4-methylphenyl)sulfonyl]-2-phenyl-1H-imidazol-4-yl}methanamine 0.5 oxalate]: 160 nM; `CNCc1cn(S(=O)(=O)c2cccc(OC)c2)c(-c2ccccc2)n1` [Example 7, 1-{1-[(3-methoxyphenyl)sulfonyl]-2-phenyl-1H-imidazol-4-yl}-N-methylmethanamine fumarate]: 30 nM.

In the case of `CNCc1nc(-c2ccccc2)c(S(=O)(=O)c2ccccc2)s1` [Example 12, N-methyl-1-[4-phenyl-5-(phenylsulfonyl)-1,3-thiazol-2-yl]methanamine hydrochloride], the IC50 is 170 nM.
